“And” between values parts separate entries of the source, which are not always exact repeats. Equal values may be shown once.
Biological target: Sigma non-opioid intracellular receptor 1 (Rattus norvegicus, UniProt Q9R0C9)
Sequence (Q9R0C9 whole entry): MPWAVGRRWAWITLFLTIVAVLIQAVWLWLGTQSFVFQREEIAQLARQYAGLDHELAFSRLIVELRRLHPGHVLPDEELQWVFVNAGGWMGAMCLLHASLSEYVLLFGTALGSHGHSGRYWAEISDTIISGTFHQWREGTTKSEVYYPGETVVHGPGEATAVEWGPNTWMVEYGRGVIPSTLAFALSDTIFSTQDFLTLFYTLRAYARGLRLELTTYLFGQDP

Row | Structure (SMILES) | Ki
1 | CCC12CCN(CC3(O)CC3)C(Cc3ccc(O)cc31)C2(C)C (stereo unspecified) | 229 nM
2 | CCC1(c2ccccc2)OCC([C@H]2CCCCN2)O1 (stereo partly specified) | 82 nM and 152 nM
3 | c1ccc(C2(N3CCCCC3)CCCCC2)cc1 | 29 nM and 135 nM
4 | c1ccc(C2(c3ccccc3)OCC(C3CCCCN3)O2)cc1 (racemic) | 23 nM and 141 nM
5 | CN[C@@]1(c2ccccc2Cl)CCCCC1=O [2-(2-Chloro-phenyl)-2-methylamino-cyclohexanone(Ketamine)] | 440 nM and 1450 nM
6 | Oc1ccc2c(c1)C13CCCCC1C(C2)N(CC1CC1)CC3 (stereo unspecified) [17-(cyclopropylmethyl)-17-azatetracyclo[7.5.3.0^{1,10}.0^{2,7}]heptadeca-2(7),3,5-trien-4-ol] | 226 nM and 287 nM
7 | C[C@@H]1[C@@H]2Cc3ccc(O)cc3[C@@]1(C)CCN2CC1CC1 [(SSS)-12-Cyclopropylmethyl-13-methyl-12-aza-tricyclo[9.1.1.0*3,8*]trideca-3(8),4,6-trien-6-ol(cyclazocine)] | 69 nM and 125 nM
8 | CC1(C2(C)COC(c3ccccc3)(c3ccccc3)O2)CCCCN1 (stereo unspecified) [CAS_4792-18-1] | 5500 nM and 1900 nM
9 | Oc1noc2c1CCNC2 [CAS_64603-91-4] | > 10000 nM
10 | Cc1cccc(C2(N3CCCCC3)CCCCC2)c1 [PCP,m-OH] | 8 nM and 77 nM
11 | C=CCN1CC[C@]2(C)c3cc(O)ccc3C[C@@H]1[C@@H]2C [SKF 10,047 (-)] | 117 nM and 134 nM and 229 nM and 571 nM

— BindingDB's records for PubMed 2989489 (Eli Lilly, 1985)
